Laboratory results taken from patent publication US6656962B2, “Use of amino-isoxazolidone compounds for improvement of lexical priming” (Pharmacia Corporation, priority 1994, dated 2003).

Experiments:
[1] = molecular target: T1, NMDA receptor complex ([3H]TCP binding) (Rattus norvegicus, UniProt P35439); test: Assay B: TCP Modulation Assay (stimulation of [3H]TCP binding to synaptic plasma membranes); format: biochemical
T1 construct: Triton X-100 washed synaptic plasma membranes (SPM) prepared from rat forebrain; from tissue; host or cells: rat forebrain synaptic plasma membranes (male Sprague-Dawley, 30-45 days old), Triton X-100 washed
Description: [3H]TCP binding was performed using Triton X-100 washed synaptic plasma membranes (SPM) prepared from rat forebrain (30-45 day old, male SpragueDawley; Sasco, St. Charles, Mo.) as described previously [J. W. Thomas, W. F. Hood, J. B. Monahan, P. C. Contreras and T. L. O'Donohue, Brain Res., 442, 396-398 (1988)]. […] The samples were then filtered through glass fiber filters (Schleicher and Schuell #32) which were pretreated with 0.05% (v/v) polyethylenimine. The filters were washed and the radioactivity quantitated by liquid scintillation spectrometry. […] The EC50 values for the stimulation of [3H]TCP binding were determined using a four parameter logistic regression analysis.

[2] = system: recognition memory and attention in Alzheimer patients; conditions: Alzheimer's disease patients, Searle Protocol NC6-93-06-009; cited from earlier work
[3] = system: implicit memory (priming) in Alzheimer patients; test: Assay C: Implicit Memory Paradigm (word identification test, priming) in Alzheimer patients; format: in vivo, human; conditions: 15 mg twice daily
Excerpt: In this test, subjects identify words presented in a visually degraded or masked format in which only parts of each letter are shown. Subjects view several lists of these degraded words over a period of three days, some of which are repeated from day-to-day and some that are new. Learning, or what is referred to as “priming”, is shown on this test when subjects identify a larger number of repeated or old words than new words. […] The diagnosis of probable Alzheimer's disease was made according to the criteria defined by the National Institute on Neurological Disorders and Stroke Work Group [G. McKhann et al, Neurology, 34, 939-944 (1984)]. This diagnosis was based on clinical evaluation that included neuropsychological assessment, laboratory blood screening, neurolgical examination, and either a CT or MRI scan. The criteria for entry into the study was Mini-mental State Examination score between 12 and 24 inclusive [M. Folstein et al, J. Psych. Res., 12, 189-198 (1975)], Global Deterioration Scale score between 3 and 5 inclusive [B. Reisberg et al, Am. J. Psych., 139, 1136-1139 (1982)], Modified […], ischemic score of 4 or less [G. W. Small et al, J. Clin. Psych., 46, 514-517 […]], and Hamilton Psychiatric Rating Scale for Depression score of 17 or less [M. Hamilton, Neurology and Neurosurgery, 23, 56-62 (1960)]. Patients with medical, neurological, or psychiatric illnesses other than Alzheimer's disease that could account for the abnormal mental status were excluded. […] The eligibility of patients was assessed during a 28-day period before the study began. […] All unused medication was returned and counted to check for compliance in taking the drug. […] The total increase in priming was calculated by first deriving the amount of priming that occurred on each trial (i.e., difference in the proportion of old and new words identified). […] Priming is not calculated on trial 1 because from the patient's perspective there are no old words on trial 1; the words begin to repeat on the second trial.

[4] = oral, tenth week of treatment, Alzheimer patients

Structure (SMILES): NC1CONC1=O (single isomer, unassigned) [D-cycloserine, 4-amino-3-isoxazolidone]
- effect on glycine stimulation of [3H]TCP binding ([1]; in the presence of glycine (0.1-0.6 μM)): reduces the maximal level of glycine stimulation
- performance on recognition memory and attentional tests [2]: did not improve performance
- patients who improved their priming scores from trial 2 to trial 9 [3, 4]: 68%
- total increase in priming vs placebo (post-hoc Scheffe test) [3, 4]: significant difference in performance
- linear trend in priming across trials ([3]; trials 2 to 9, Alzheimer patients): significant linear trend across trials

Structure (SMILES): c1csc(C2(N3CCCCC3)CCCCC2)c1 [[3H]TCP]
- Kd ([1]; basal conditions): 44 nM
